Reference: US8980544B2, “Boronic and borinic acid compounds as inhibitors of sulfenic acid-containing proteins” (The Penn State Research Foundation, priority 2012, dated 2015)
Like-named read-outs stand apart in the source and are kept apart here. Marks after values point to notes of the source that are not given here.

Experiments:
[1] = target: T1, iron-based NHase from Rhodococcus erythropolis AJ270 (Rhodococcus erythropolis, UniProt P13448); test: Enzymatic inhibition of nitrile hydratase (NCTB conversion, 412 nm); format: biochemical; settings: for Average rate (abs/min): 1 mM NCTB, 23° C.; for Rate relative to NHase: NHase without additive = 100%; for Activity: nmol thiolate product per minute per mg freeze-dried NHase powder
T1 construct: purchased Prozomix Limited
T1 sequence (P13448 1-207): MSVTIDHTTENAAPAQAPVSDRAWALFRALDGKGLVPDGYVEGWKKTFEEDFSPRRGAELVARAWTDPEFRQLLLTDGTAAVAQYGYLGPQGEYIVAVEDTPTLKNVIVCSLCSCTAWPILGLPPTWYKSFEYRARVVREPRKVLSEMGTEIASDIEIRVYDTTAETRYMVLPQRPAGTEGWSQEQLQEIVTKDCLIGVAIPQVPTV
T1 sequence (P13449 1-212 partner): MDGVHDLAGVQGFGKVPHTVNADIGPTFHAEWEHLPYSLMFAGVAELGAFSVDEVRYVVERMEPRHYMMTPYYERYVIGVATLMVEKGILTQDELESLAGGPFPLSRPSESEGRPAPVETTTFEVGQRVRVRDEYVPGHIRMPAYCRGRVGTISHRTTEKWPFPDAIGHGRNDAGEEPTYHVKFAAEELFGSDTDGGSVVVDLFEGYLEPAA
Procedure: Here, the catalytic efficiency of the iron-based NHase from Rhodococcus erythropolis AJ270 (purchased from Prozomix Limited, Station court, Haltwhistle, Northumberland, NE49 9HN, UK; see, proxomix.com) was assayed in the presence of a known sulfenic acid trap (dimedone) and four boronic acid derivatives. The chosen assay [Sari et al., J. Inorg. Biochem. 2007 101:614-622] was the conversion of 2-nitro-5-thiocyanatobenzoic acid (NCTB) into formamide and 5-mercapto-2-nitrobenzoic acid.
The freeze-dried powder from Prozomix was shipped at room temperature and stored at −20° C. upon arrival. The enzyme was reconstituted at 20 mg/mL in 50 mM phosphate buffer (pH 7.0) with 40 mM butyric acid. These were similar conditions to those described in the Prozomix protocol, the main difference being the use of phosphate buffer instead of Tris buffer; by itself, NHase prepared in Tris had the same reactivity as samples prepared in phosphate buffer. The solution was exposed to 400 W white light for 25 minutes on ice to permit for photo-reactivation of the enzyme.
The kinetic studies were conducted by diluting the stock solution of NHase into de-ionized distilled water (ddH2O) to get at about 0.33 mg/mL of freeze-dried NHase powder provided by Prozomix (used without further manipulation) in solution. Appropriate amounts of PBA (phenyl boronic acid; 2 g), BOXY ((2-hydroxylmethyl)-benzeneboronic acid hemiester; 2A), 3BrB (3-bromobenzeneboronic acid; 2d), or dimedone were added to the mixtures so that the final concentrations of the boronic acids/dimedone were 0, 0.5, 1.0, 2.0, or 2.5 mM.
After permitting the newly composed mixtures to sit at room temperature (at about 23° C.) for five minutes, NCTB was added so that the final NCTB concentration equalled 1 mM. The final volume of the mixtures was 1 mL in UV-cells with 1 cm path length. The final concentration of the phosphate buffer was 3.6 mM. The progress of the reaction (release of the thiolate product at 412 nm; extinction coefficient at 412 nm=13600/M/cm) [Sari et al., J. Inorg. […] The rates of the reaction were determined from fitting the first 4 minutes of the absorbance vs. time traces to a standard linear equation. The activity values were calculated as nmol of thiolate product generated per minute per mg of freeze-dried NHase powder. The reaction rates are reported below in Table 4, below, as averages of duplicate kinetic studies.

[2] = literature value; cited from earlier work
[3] = pKa by half-neutralization technique in acetonitrile-water; format: physicochemical
Procedure: The final volume of the solutions is 5 mL. The averaged pKa values from duplicate measurements are reported, and used for analysis.
It should be noted that the pKa values determined this way are not corrected for the change in the autoprotolysis constant of the solution due to mix solvent system.

[4] = Spectrophotometric (UV/vis) titration of boronic acids 2 against the sodium salt of sulfenic acid 1, incl. reversibility with NaOH; settings: for Kd: read-out: Averaged Kd from spectrophotometric titrations
Procedure: The titration studies were performed using a Cary 100 Bio UV/vis spectrophotometer thermostated at 22° C. […] Each titration study was completed within 10 minutes.
The initial solution contained 0.8 mM of the sodium salt of 1.

[5] = 15% (v/v) acetonitrile-water mixture, 15% (v/v) acetonitrile-water, half-neutralization, averaged duplicates, Table 1, read-out: pKa in 15% acetonitrile-water at 22° C.
[6] = 70% (v/v) acetonitrile-water mixture, read-out: Averaged pKa value from half neutralization method in 70% (v/v) acetonitrile-water
[7] = complex 1:2, 70% (v/v) acetonitrile-water, 22° C.
[8] = complex 1:2, 15% (v/v) acetonitrile-water
[9] = 15% acetonitrile-water mixture, 15% acetonitrile-water, as listed in Table 2, read-out: pKa in 15% acetonitrile-water

| SMILES | pKa [3, 5] | Average rate (abs/min) ([1]; [B]/[Dimedone] = 0.5 mM) | Rate relative to NHase ([1]; [B]/[Dimedone] = 0.5 mM) | Activity ([1]; [B]/[Dimedone] = 0.5 mM) | Average rate (abs/min) ([1]; [B]/[Dimedone] = 1.0 mM) | Rate relative to NHase ([1]; [B]/[Dimedone] = 1.0 mM) | Activity ([1]; [B]/[Dimedone] = 1.0 mM) | Average rate (abs/min) ([1]; [B]/[Dimedone] = 2.0 mM) | Rate relative to NHase ([1]; [B]/[Dimedone] = 2.0 mM) | Activity ([1]; [B]/[Dimedone] = 2.0 mM) | Average rate (abs/min) ([1]; [B]/[Dimedone] = 2.5 mM) | Rate relative to NHase ([1]; [B]/[Dimedone] = 2.5 mM) | Activity ([1]; [B]/[Dimedone] = 2.5 mM) | pKa [3, 9] | also measured |
| --- | --- | --- | --- | --- | --- | --- | --- | --- | --- | --- | --- | --- | --- | --- | --- |
| CC1(C)CC(=O)CC(=O)C1 [Dimedone, 5,5-dimethyl-1,3-cyclohexanedione, reference compound] |  | 0.00274 ± 0.00006 abs/min | 61% | 0.611 nmol/min/mg | 0.0017 ± 0.0004 abs/min | 37% | 0.406 nmol/min/mg | 0 abs/min | 0%*** | 0 nmol/min/mg | 0 abs/min | 0% | 0 nmol/min/mg |  |  |
| O=C1c2ccccc2C(=O)c2c(SO)cccc21 [Compound 1, anthraquinone-1-sulfenic acid, reference compound] | 7.61 ± 0.02 |  |  |  |  |  |  |  |  |  |  |  |  |  | pKa value reported in Kice et al., J. Org. Chem. 1989 [2]: 7.51; pKa [3, 6]: 8.6 ± 0.1 |
| OB(O)c1ccccc1 [Compound 2g, phenylboronic acid] | 9.5 ± 0.06 | 0.0043 ± 0.0004 abs/min | 96% | 0.968 nmol/min/mg | 0.0041 ± 0.0002 abs/min | 91% | 1.006 nmol/min/mg | 0.00382 ± 0.00004 abs/min | 87% | 0.851 nmol/min/mg | 0.0038 ± 0.0001 abs/min | 83% | 0.931 nmol/min/mg | 9.38 | Averaged -log (Kd) in 70% acetonitrile-water at 22° C. [4, 7]: 3.96 ± 0.04; Kd [4, 8]: 200 µM |
| OB(O)c1cccc(Br)c1 [Compound 2d, 3-Bromobenzene-boronic acid] | 8.55 | 0.0039 ± 0.0004 abs/min | 87% | 0.878 nmol/min/mg | 0.00369 ± 0.00009 abs/min | 81% | 0.903 nmol/min/mg | 0.00348 ± 0.0004 abs/min | 79% | 0.775 nmol/min/mg | 0.00319 ± 0.0007 abs/min | 69% | 0.782 nmol/min/mg | 8.48 | Averaged -log (Kd) in 70% acetonitrile-water at 22° C. [4, 7]: 4.0 ± 0.1; Kd [4, 8]: 158 µM |
| OB1OCc2ccccc21 [Compound 2A, 2-(hydroxymethyl)benzeneboronic acid hemiester] | 7.8 | 0.0039 ± 0.0002 abs/min | 87% | 0.870 nmol/min/mg | 0.0034 ± 0.0002 abs/min | 74% | 0.826 nmol/min/mg | 0.00266 ± 0.00008 abs/min | 61% | 0.592 nmol/min/mg | 0.00205 ± 0.00009 abs/min | 45% | 0.502 nmol/min/mg | 7.8 | Averaged -log (Kd) in 15% acetonitrile-water at 22° C. [4]: 3.8 ± 0.1; Averaged -log (Kd) in 70% acetonitrile-water at 22° C. [4]: 3.90 ± 0.02; Kd [4]: 158 µM; Effectiveness of NHase inhibition among the boronic acids examined ([1]; comparison of PBA, BOXY, 3BrB, 0.5-2.5 mM): most effective; pKa [3, 6]: 10.2 |

Continued, in another order:

| pKa [3, 5] | SMILES | Average rate (abs/min) ([1]; [B]/[Dimedone] = 0.5 mM) | Rate relative to NHase ([1]; [B]/[Dimedone] = 0.5 mM) | Activity ([1]; [B]/[Dimedone] = 0.5 mM) | Average rate (abs/min) ([1]; [B]/[Dimedone] = 1.0 mM) | Rate relative to NHase ([1]; [B]/[Dimedone] = 1.0 mM) | Activity ([1]; [B]/[Dimedone] = 1.0 mM) | Average rate (abs/min) ([1]; [B]/[Dimedone] = 2.0 mM) | Rate relative to NHase ([1]; [B]/[Dimedone] = 2.0 mM) | Activity ([1]; [B]/[Dimedone] = 2.0 mM) | Average rate (abs/min) ([1]; [B]/[Dimedone] = 2.5 mM) | Rate relative to NHase ([1]; [B]/[Dimedone] = 2.5 mM) | Activity ([1]; [B]/[Dimedone] = 2.5 mM) | pKa [3, 9] | also measured |
| --- | --- | --- | --- | --- | --- | --- | --- | --- | --- | --- | --- | --- | --- | --- | --- |
| 9.4 ± 0.02 | OB(O)c1ccc(F)cc1 [Compound 2f, 4-fluorobenzene-boronic acid] |  |  |  |  |  |  |  |  |  |  |  |  |  |  |
| 9.1 ± 0.1 | OB(O)c1ccc(Br)cc1 [Compound 2e, 4-bromo-benzeneboronic acid] |  |  |  |  |  |  |  |  |  |  |  |  |  |  |
| 7.39 ± 0.05 | O=[N+]([O-])c1ccc(B(O)O)cc1 [Compound 2b, 4-nitrobenzeneboronic acid] |  |  |  |  |  |  |  |  |  |  |  |  |  |  |
| 10.13 ± 0.02 | COc1ccc(B(O)O)cc1 [Compound 2h, 4-methoxybenzeneboronic acid] |  |  |  |  |  |  |  |  |  |  |  |  |  |  |
